Consider one compound from US20240182445A1 (ONO PHARMACEUTICAL CO., LTD., priority 2019, published 2024).

By IC50 is commonly meant the concentration that gives 50% inhibition. High values mean a need for much substance, low ones inhibition by little substance. A word on the CLint scaled: it is the capacity of the preparation to metabolise the compound, expressed as a volume cleared per time. Low readings indicate greater metabolic stability, high ones faster metabolism.

The target in one data set is T1, human TREK-1 (Homo sapiens, UniProt O95069).
T1 construct: expressed in transfected cells
T1 sequence (O95069 1-426): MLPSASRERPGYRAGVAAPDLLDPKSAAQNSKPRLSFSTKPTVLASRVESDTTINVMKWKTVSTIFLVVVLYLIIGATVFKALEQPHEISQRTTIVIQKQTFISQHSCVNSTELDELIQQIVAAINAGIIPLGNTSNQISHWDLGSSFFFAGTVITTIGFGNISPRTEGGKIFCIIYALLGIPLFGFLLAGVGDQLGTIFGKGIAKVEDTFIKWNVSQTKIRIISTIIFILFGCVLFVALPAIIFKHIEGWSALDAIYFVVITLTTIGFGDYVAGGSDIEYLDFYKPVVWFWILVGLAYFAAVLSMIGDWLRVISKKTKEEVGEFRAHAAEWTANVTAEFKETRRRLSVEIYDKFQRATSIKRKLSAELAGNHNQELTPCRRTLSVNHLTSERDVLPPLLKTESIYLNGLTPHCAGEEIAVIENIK
The data set can be described thus: TREK-1 Manual Patch Clamp (hMPC) assay. In kind it is cell-based. To be noted: CHO-K1 cells stably expressing human TREK-1; whole-cell current at 0 mV. Here is the method: The term “patch clamp technique” herein refers to the “gold standard” technique for evaluating TREK channel pharmacology. The detail method is described below.
CHO-K1 cells stably expressing human TREK-1 or HEK293 cells stably expressing human TREK-2 are plated on glass coverslips, and voltage clamped in the whole-cell configuration of the patch clamp technique. Cells were voltage clamped at a holding potential of −80 mV and the stepped to 0 mV for 500 msec. The voltage was subsequently ramped from −120 mV to +80 mV over a 500 msec duration. This step-ramp protocol was repeated every 10 sec. The bathing solution contained the following: 135 mM NaCl, 5 mM KCl, 2 mM CaCl2, 1 mM MgCl2, 5 mM D-Glucose, 10 mM HEPES, 10 mM sucrose (adjusted to pH 7.4 with NaOH, 300 mosmol/kg H2O). The pipette solution contained the following: 135 mM KCl, 2 mM MgCl2, 1 mM EGTA, 10 mM HEPES, 2 mM Na2ATP (adjusted to pH 7.35 with KOH, 285 mosmol/kg H2O). Test compounds were dissolved into the bathing solution. Experiments on TREK-2 were terminated with the addition of the control compound (tert-butyl (3-((4-(benzyloxy)-2-methylphenyl)carbamoyl)-4-chlorophenyl)carbamate) so that maximal inhibition could be determined. The effects of test compound on the currents were calculated at 0 mV using the following equations:
For CHO cells expressing TREK-1 channel: % inhibition=(1-post current/pre current)×100
The compounds shown in Table 2 were prepared in an analogous manner with the appropriate starting materials, and evaluated in our TREK-1 Manual Patch Clamp (hMPC) assay.
In general terms: Patch clamp records ionic current or voltage across a cell membrane.

In data set [1] the test system is plasma protein. In words: Rat plasma protein binding (PPB). In kind it is in vitro ADME. The procedure:
(§1) These assays were performed according to known methods as generally described in the following references: Conde-Ceide et al. ACS Med. Chem. Lett. 2015, 6, 716-720; Morris et al. J. Med. Chem. 2014, 57, 10192-10197; and Bubser et al. ACS Chem. Neurosci. 2014, 5, 920-942. Abbreviations which have been used in the descriptions of the following tables are; PPB is plasma protein binding; BHB is brain homogenate binding; and CLint is intrinsic clearance in hepatic microsomes.

Data set [2] deals with plasma protein. The data set can be described thus: Mouse plasma protein binding (PPB). Type of data set: in vitro ADME. The procedure: as §1
Data set [3] relates to plasma protein. The data set can be described thus: Human plasma protein binding (PPB). Type of data set: in vitro ADME. The procedure:
as §1

The nature of data set [4]: Rat brain homogenate binding (BHB). In kind it is in vitro ADME. The procedure:
as §1

Data set [5] is described as follows: Rat hepatic microsomal intrinsic clearance. To be noted: rat hepatic microsomes. Type of data set: in vitro ADME. The procedure:
as §1

Data set [6] is described as follows: Human hepatic microsomal intrinsic clearance. To be noted: human hepatic microsomes. Type of data set: in vitro ADME. Here is the method:
as §1

For a further data set, the target named is CYP2C9 (Homo sapiens, UniProt P11712). In words: P450 inhibition 2C9. Type of data set: in vitro ADME. Here is the method:
as §1

Data set [7] is described as follows: Rat in vivo pharmacokinetics and brain distribution (i.v. cassette). To be noted: iv, rat i.v. cassette injection. Here is the method: Compound 12 was tested in several in vivo assays to investigate pharmacokinetics and brain distribution. Abbreviations which have been used in the descriptions of following tables are; CLp is plasma clearance; Vss is volume of distribution at steady state; Elim. t1/2 is half-life for elimination; Kp is tissue distribution partition coefficient; Kp,uu is unbound tissue distribution partition coefficient.

Chain of CYP2C9 (P11712 whole entry): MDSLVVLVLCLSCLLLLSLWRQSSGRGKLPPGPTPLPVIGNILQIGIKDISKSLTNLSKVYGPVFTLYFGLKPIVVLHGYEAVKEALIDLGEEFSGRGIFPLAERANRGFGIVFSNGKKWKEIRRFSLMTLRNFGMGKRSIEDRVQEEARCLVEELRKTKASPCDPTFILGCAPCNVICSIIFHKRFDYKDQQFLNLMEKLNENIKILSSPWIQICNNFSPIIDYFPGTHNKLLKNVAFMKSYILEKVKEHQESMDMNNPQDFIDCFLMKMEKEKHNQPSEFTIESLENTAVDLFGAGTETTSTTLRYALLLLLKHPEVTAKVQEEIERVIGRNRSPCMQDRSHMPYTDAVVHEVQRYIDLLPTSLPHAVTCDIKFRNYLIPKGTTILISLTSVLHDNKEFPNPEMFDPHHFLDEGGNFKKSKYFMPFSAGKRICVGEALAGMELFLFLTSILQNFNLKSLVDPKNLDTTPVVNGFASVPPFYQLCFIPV

As to `CC(=O)N[C@H]1CC[C@@H](n2ncc(Cl)c2C(=O)Nc2ncc(C#Cc3ccccc3)cc2C)CC1` [Compound 12, 1-(cis-4-acetamidocyclohexyl)-4-chloro-N-(3-methyl-5-(phenylethynyl)pyridin-2-yl)-1H-pyrazole-5-carboxamide], the IC50 amounted to 60 nM on human TREK-1 and 5700 nM against CYP2C9. In addition, the “Rat PPB (% bound)” value with plasma protein [1] came out at 98.4 % bound. For the same compound, in the data set with plasma protein [2], the “Mouse PPB (% bound)” value is on record as 99.2 % bound. In the data set on plasma protein [3], the “Human PPB (% bound)” value is recorded as 98.8 % bound. Besides, the “Rat BHB (% bound)” value in [4] is 99.7 % bound. For the same compound, the figures for the CLint scaled in data set [5] and in data set [6] were 54 mL/min/kg and 16 mL/min/kg, respectively. Besides, the Kp uu in data set [7] (brain, unbound tissue distribution partition coefficient, read-out: Rat brain: plasma Kp, uu) is 0.19. Besides, in data set [7] (plasma clearance, read-out: Rat CLp), the clearance amounted to 28 mL/min/kg. In addition, the half-life in [7] (plasma, half-life for elimination, read-out: Rat Elim. t1/2 (converted)) is 2 h. Moreover, in data set [7] (plasma, volume of distribution at steady state, read-out: Rat Vss), the Vd was 4.7 L/kg.
